What follows are compounds tested against human neprilysin (EC 3.4.24.11; NEP) (Homo sapiens (Human), UniProt P08473) (assay: In vitro enzyme inhibition assay at human NEP (fluorogenic peptide substrate)). Conditions: pKi values at human NEP, recombinant human NEP.
human neprilysin (EC 3.4.24.11; NEP), sequence (P08473 52-750): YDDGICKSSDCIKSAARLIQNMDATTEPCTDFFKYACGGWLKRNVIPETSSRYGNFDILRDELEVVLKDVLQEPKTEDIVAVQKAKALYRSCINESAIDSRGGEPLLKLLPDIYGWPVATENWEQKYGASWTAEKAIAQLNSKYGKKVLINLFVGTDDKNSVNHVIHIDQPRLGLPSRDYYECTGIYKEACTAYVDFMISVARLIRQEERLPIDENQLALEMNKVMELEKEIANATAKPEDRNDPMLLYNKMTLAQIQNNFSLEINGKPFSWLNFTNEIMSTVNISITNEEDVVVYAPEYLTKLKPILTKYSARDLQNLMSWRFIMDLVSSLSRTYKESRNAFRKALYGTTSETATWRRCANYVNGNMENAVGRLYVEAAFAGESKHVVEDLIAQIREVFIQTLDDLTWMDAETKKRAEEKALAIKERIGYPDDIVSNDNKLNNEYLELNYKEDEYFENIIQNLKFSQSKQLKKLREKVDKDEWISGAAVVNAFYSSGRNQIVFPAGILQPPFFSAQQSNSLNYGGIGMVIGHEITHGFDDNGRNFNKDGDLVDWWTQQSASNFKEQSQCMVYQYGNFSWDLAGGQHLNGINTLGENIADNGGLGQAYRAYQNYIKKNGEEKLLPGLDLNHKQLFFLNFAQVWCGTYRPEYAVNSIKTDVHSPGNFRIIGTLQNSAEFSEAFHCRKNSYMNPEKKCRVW
Type: biochemical
Summary of the method: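 pKi derived from apparent Ki fitted as v=v0/[1+(I/K′)] to Ex320/Em405 fluorescence. Compounds (pM to 10 μM) sat with recombinant human enzyme 30 min at 37 °C before 10 μM fluorogenic Mca peptide was added in HEPES pH 7.5 buffer with 10 μM ZnSO4; 20 min reaction, acetic acid quench.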
`O=C(N[C@H](Cc1ccc(-c2cccc(Cl)c2)cc1)C[C@@H](O)C(=O)O)c1cc(-c2ccccc2Cl)on1` [Example 18-15, (2R,4R)-5-(3′-Chlorobiphenyl-4-yl)-4-{[5-(2-chlorophenyl)-isoxazole-3-carbonyl]-amino}-2-hydroxy-pentanoic acid] showed a pKi of at least 9.0.
Work on `O=C(N[C@H](Cc1ccc(-c2ccccc2)cc1)C[C@@H](O)C(=O)O)c1cc(-c2cnccn2)n[nH]1` [Example 15-106, (2R,4R)-5-Biphenyl-4-yl-2-hydroxy-4-[(5-pyrazin-2-yl-2H-pyrazole-3-carbonyl)-amino]pentanoic acid] yielded a Ki of 1.26 to 10 nM.
With `O=C(N[C@H](Cc1ccc(-c2ccccc2)cc1)CC(O)C(=O)O)c1cc(-c2ccc(-c3ccccc3)cc2)[nH]n1` (stereo partly drawn) [Example 15-39, (R)-5-Biphenyl-4-yl-4-[(5-biphenyl-4-yl-1H-pyrazole-3-carbonyl)amino]-2-hydroxy-pentanoic acid] the Ki was 12.6 to 100 nM.
With `COc1ccccc1-c1cc(C(=O)N[C@H](Cc2ccc(-c3ccccc3)cc2)C[C@@H](O)C(=O)O)on1` [Example 12-13, (2R,4R)-5-Biphenyl-4-yl-2-hydroxy-4-{[3-(2-methoxy-phenyl)-isoxazole-5-carbonyl]-amino}-pentanoic acid] the pKi was at least 9.0.
Compound `O=C1CCC(C(=O)N[C@H](Cc2ccc(-c3ccccc3)cc2)CC(O)C(=O)O)=NN1` (stereo partly drawn) [Example 13-6, (R)-5-Biphenyl-4-yl-2-hydroxy-4-[(6-oxo-1,4,5,6-tetrahydro-pyridazine-3-carbonyl)-amino]-pentanoic acid] has a Ki of 12.6 to 100 nM.
`O=C(N[C@H](Cc1ccc(-c2ccccc2)cc1)CC(O)C(=O)O)c1cn[nH]c1` (stereo partly drawn) [Example 15-113, (R)-5-Biphenyl-4-yl-2-hydroxy-4-[(1H-pyrazole-4-carbonyl)amino]pentanoic acid] showed a Ki of 12.6 to 100 nM.
With `O=C(N[C@H](Cc1ccc(-c2cccc(Cl)c2)cc1)C[C@@H](O)C(=O)O)c1ccc(O)nn1` [Example 18-50, (2R,4R)-5-(3′-Chlorobiphenyl-4-yl)-2-hydroxy-4-[(6-hydroxy-pyridazine-3-carbonyl)-amino]-pentanoic acid] the pKi was at least 9.0.
With `O=C(N[C@H](Cc1ccc(-c2ccccc2)cc1)C[C@@H](O)C(=O)O)c1cc(C(=O)O)[nH]n1` [Example 2-D, 5-((1R,3R)-1-Biphenyl-4-ylmethyl-3-carboxy-3-hydroxypropylcarbamoyl)-2H-pyrazole-3-carboxylic Acid] the pKi was at least 9.0.
`O=C(N[C@H](Cc1ccc(-c2ccccc2)cc1)CC(O)C(=O)O)c1cc(C(=O)O)n(Cc2cc(F)cc(Cl)c2)n1` (stereo partly drawn) [Example 15-11, 5-((R)-1-Biphenyl-4-ylmethyl-3-carboxy-3-hydroxy-propylcarbamoyl)-2-(3-chloro-5-fluorobenzyl)-2H-pyrazole-3-carboxylic acid] showed a Ki of 1.26 to 10 nM.
With `O=C(N[C@H](Cc1ccc(-c2ccccc2)cc1)C[C@@H](O)C(=O)O)c1cc2nn1CCOc1ccccc1-2` [Example 16-2, (2R,4R)-5-Biphenyl-4-yl-2-hydroxy-4-[(8-oxa-11,14-diaza-tricyclo[9.2.1.02,7]tetradeca-1(14),2,4,6,12-pentaene-12-carbonyl)-amino]-pentanoic acid] the Ki was 12.6 to 100 nM.
`CC(C)(c1ccc(-c2ccccc2)cc1)[C@H](C[C@@H](O)C(=O)O)NC(=O)c1c[nH]nn1` [Example 25-1, (2R,4S)-5-Biphenyl-4-yl-2-hydroxy-5-methyl-4-[(1H-[1,2,3]triazole-4-carbonyl)-amino]-hexanoic acid] was tested, and the Ki was 12.6 to 100 nM.
`Cc1cccc(-c2ccc(C[C@@H](C[C@H](O)C(=O)O)NC(=O)c3ccc4nnn(O)c4c3)cc2)c1` [Example 23-1, (2S,4S)-2-Hydroxy-4-[(3-hydroxy-3H-benzotriazole-5-carbonyl)-amino]-5-(3′-methyl-biphenyl-4-yl)-pentanoic acid] gave a pKi of at least 9.0.
Compound `O=C(N[C@H](Cc1ccc(-c2ccccc2)cc1)C[C@@H](O)C(=O)O)c1noc(=O)[nH]1` [Example 12-27, (2R,4R)-5-Biphenyl-4-yl-2-hydroxy-4-[(5-oxo-4,5-dihydro-[1,2,4]oxadiazole-3-carbonyl)-amino]-pentanoic acid] has a pKi of at least 9.0.
In the case of `Cc1n[nH]c(C(=O)N[C@H](Cc2ccc(-c3ccccc3)cc2)CC(O)C(=O)O)n1` (stereo partly drawn) [Example 10-11, (R)-5-Biphenyl-4-yl-2-hydroxy-4-[(5-methyl-2H-[1,2,4]triazole-3-carbonyl)amino]pentanoic acid], the Ki is reported as 12.6 to 100 nM.
For `O=C(N[C@H](Cc1ccc(-c2ccccc2)cc1)CC(O)C(=O)O)c1cc(C(=O)O)n(Cc2ccccc2Cl)n1` (stereo partly drawn) [Example 15-9, 5-((R)-1-Biphenyl-4-ylmethyl-3-carboxy-3-hydroxy-propylcarbamoyl)-2-(2-chlorobenzyl)-2H-pyrazole-3-carboxylic acid], the Ki was 1.26 to 10 nM.

From patent US10759813B2, “Neprilysin inhibitors” (THERAVANCE BIOPHARMA R&D IP, LLC, priority 2010, dated 2020)
